# From US6559167B1, “Prodrugs of proton pump inhibitors” (Regents of the University of California, priority 1998, dated 2003)
# Several values for one entry are separate records, joined by “and”; a condition that tells them apart may be missing. Identical values can stand only once.
# Legend:
# [1] = system: gastric acid secretion of the conscious male rat; assay: Inhibitory effect on gastric acid secretion of the conscious male rat at timed intervals after oral administration; assay type: in vivo; design: inhibition of gastric acid secretion: concentration or dose not given beside the values; conditions: for % inhibition of gastric acid secretion: male rat; for inhibition of gastric acid secretion: after 5 hr of oral administration
# [2] = Relative plasma concentration of OMEPRAZOLE in male rat after oral administration; conditions: male rat;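 also: Sprague-Dawley rats fasted one day with water available, dosed orally with prodrug compounds, OMEPRAZOLE quantified by HPLC in plasma from serial blood draws, control given OMEPRAZOLE itself orally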
# Description: Male adult rats of the Sprague-Dawley strain were used for determining the concentration of OMEPRAZOLE in the plasma. All rats were derived of food but not of water for one day. Examples of compounds of the invention (2 mg/kg of rat weight) were orally administrated to male rats (weighing 250 g to 270 g) and blood samples (0.3 ml) were taken at timed intervals. Blood samples were centrifuged and plasma was taken out. Plasma was extracted with 0.5 ml of dichloromethane. Dichloromethane layer was evaporated by nitrogen/air blowing. The residual materials were dissolved in 0.5 ml of 40% acetonitrile in 10 mM phosphate buffer (pH 7.4). Amounts of OMEPRAZOLE were determined by HPLC analysis. As a control, OMEPRAZOLE (4 mg/kg of rat weight) was orally administrated.
# [3] = system: gastric acid secretion (histamine-stimulated acid output), pylorus-ligated male rats; assay: Initial inhibition of gastric acid secretion after intraduodenal administration to pylorus-ligated rats; assay type: in vivo; conditions: 10 μmole/kg, after pylorus ligation, histamine 30 mg/kg s.c., acid output over four hours, rat
# Description: Histamine (30 mg/kg) was subcutaneously injected to stimulate acid production. The abdomen was surgically closed immediately. Four hours later the esophagus was ligated and the stomach was removed. Acid output was measured as described above.
# [4] = Chemical stability: hydrolysis half-life in buffer solution at various pH; assay type: physicochemical
# From the text: By way of concrete examples, the following tests and results are described. […] This is consistent with the knowledge that the compounds obtained by hydrolysis e. g. LANSOPRAZOLE, OMEPRAZOLE, PANTOPRAZOLE and RABEPRAZOLE are well known H,K-ATPase inhibitors. […] Another good example is 2-(2-carbamoylmethoxy-4-{2-[4-(3-methoxypropoxy)-3-methyl pyridin-2-yl methylsulfinyl]benzimidazole-1-sulfonyl}phenoxy)acetamide. The half life of this compound dependes on pH. […] Based on these measured characteristics the compound 2-(2-carbamoylmethoxy-4-{2-[4-(3-methoxypropoxy)-3-methyl pyridin-2-yl methylsulfinyl]benzimidazole-1-sulfonyl}phenoxy)acetamide is expected to be well absorbed, and slowly release the parent RABEPRAZOLE in the blood, resulting in long-lasting in vivo activity. This compound can also be administered intravenously in an aqueous solution at pH 7.4 which solution may include 2-hydroxypropyl-β-cyclodextrin.
# The chemical stability of the compounds of the invention has been followed kinetically at low concentration at 37° C. in a buffer solution composed of 0.2M NaCl, 50 mM sodium phosphate, pH 7.4, 2% bovine albumin serum, 5-10% methanol.
# The hydrolysis of 2-(2-carbamoylmethoxy-4-{2-[4-(3-methoxy-propoxy)-3-methyl-pyridin-2-ylmethanesulfinyl]-benzimidazole-1-sulfonyl}-phenoxy)-acetamide was measured at various pH.
# [5] = between 5-8 hours after oral administration, 10 μmole/kg, histamine and carbachol stimulated
# [6] = 20 min after oral administration, examples 2 mg/kg, OMEPRAZOLE 4 mg/kg
# [7] = 40 min after oral administration, examples 2 mg/kg, OMEPRAZOLE 4 mg/kg
# [8] = 60 min after oral administration, examples 2 mg/kg, OMEPRAZOLE 4 mg/kg
# [9] = 80 min after oral administration, examples 2 mg/kg, OMEPRAZOLE 4 mg/kg
# [10] = 100 min after oral administration, examples 2 mg/kg, OMEPRAZOLE 4 mg/kg
# [11] = 120 min after oral administration, examples 2 mg/kg, OMEPRAZOLE 4 mg/kg
# [12] = 140 min after oral administration, 2 mg/kg
# [13] = 160 min after oral administration, 2 mg/kg
# [14] = 180 min after oral administration, 2 mg/kg
# [15] = 210 min after oral administration, 2 mg/kg
# [16] = 240 min after oral administration, 2 mg/kg
# [17] = 270 min after oral administration, 2 mg/kg
# [18] = 300 min after oral administration, 2 mg/kg
# [19] = 330 min after oral administration, 2 mg/kg
# [20] = 360 min after oral administration, 2 mg/kg
# [21] = between 5.5-8.5 hours after oral administration, 10 μmole/kg, histamine and carbachol stimulated
# [22] = between 4-7 hr after oral administration
molecule,measurement,setting,value
"1-(Pyridine-3-sulfonyl)-5-methoxy-2-[[(3,5-dimethyl-4-methoxy-2-pyridylmethyl]sulfinyl]-1H-benzimidazole and 1-(pyridine-3-sulfonyl-6-methoxy-2-[[(3,5-dimethyl-4-methoxy-2-pyridyl)methyl]sulfinyl]-1H-benzimidazole [Example 25]",% inhibition of gastric acid secretion,[1]; [5],61% and 61.3 ± 16.1%
"1-[4-[3-(morpholin-4-yl) propoxy]benzenesulfonyl]-5-methoxy-2-[[(3,5-dimethyl-4-methoxy-2-pyridyl)methyl]sulfinyl]-1H-benzimidazole and 1-[4-[3-(morpholin-4-yl) propoxy]benzenesulfonyl]-6-methoxy-2-[[(3.5-dimethyl-4-methoxy-2-pyridyl)methyl]sulfinyl]-1H-benzimidazole [Example 37]",Relative concentration of OMEPRAZOLE released in the plasma,[2]; [6],1.67 arbitrary unit
same,Relative concentration of OMEPRAZOLE released in the plasma,[2]; [7],14.36 arbitrary unit
same,Relative concentration of OMEPRAZOLE released in the plasma,[2]; [8],3.5 arbitrary unit
same,Relative concentration of OMEPRAZOLE released in the plasma,[2]; [9],1.88 arbitrary unit
same,Relative concentration of OMEPRAZOLE released in the plasma,[2]; [10],1.88 arbitrary unit
same,Relative concentration of OMEPRAZOLE released in the plasma,[2]; [11],1.5 arbitrary unit
same,Relative concentration of OMEPRAZOLE released in the plasma,[2]; [12],1.5 arbitrary unit
same,Relative concentration of OMEPRAZOLE released in the plasma,[2]; [13],1 arbitrary unit
same,Relative concentration of OMEPRAZOLE released in the plasma,[2]; [14],1 arbitrary unit
same,Relative concentration of OMEPRAZOLE released in the plasma,[2]; [15],0.7 arbitrary unit
same,Relative concentration of OMEPRAZOLE released in the plasma,[2]; [16],0.7 arbitrary unit
same,Relative concentration of OMEPRAZOLE released in the plasma,[2]; [17],0.7 arbitrary unit
same,Relative concentration of OMEPRAZOLE released in the plasma,[2]; [18],0.4 arbitrary unit
same,Relative concentration of OMEPRAZOLE released in the plasma,[2]; [19],0.2 arbitrary unit
same,Relative concentration of OMEPRAZOLE released in the plasma,[2]; [20],0.1 arbitrary unit
same,Relative concentration of OMEPRAZOLE released in the plasma,"[2]; 390 min after oral administration, 2 mg/kg",0.1 arbitrary unit
"2-{2-carbamoylmethoxy-4-[5-methoxy-2-((4-methoxy-3,5-dimethyl pyridin-2-yl)methylsulfinyl)benzimidazole-1-sulfonyl]phenoxy}acetamide and 2-{2-carbamoylmethoxy-4-[6-methoxy-2-((4-methoxy-3,5-dimethyl pyridin-2-yl)methylsulfinyl)benzimidazole-1-sulfonyl]phenoxy}acetamide [Example 74]",gastric acid secretion after administration to male rat (in words),[1]; administrated to male rat,significantly and continuously inhibited
same,% inhibition of gastric acid secretion,[1]; [21],49.7 ± 3.7%
same,% inhibition of gastric acid secretion,"[1]; between 5.5-8.5 hours after oral administration, 10 μmole/kg, histamine and carbachol stimulated, listed as 2-{2-carbamoylmethoxy-4-[5-methoxy-2-(4-methoxy-3,5-dimethyl pyridin-2-yl)metha",49.7%
same,inhibition of histamine-stimulated acid output,[3],64.2%
"2-{4-[(5-methoxy-2-{[(3.5-dimethyl-4-methoxy-2-pyridyl)methyl]sulfinyl}benzimidazol-1-yl)sulfonyl]phenoxy}acetamide and 2-{4-[(6-methoxy-2-{[(3,5-dimethyl-4-methoxy-2-pyridyl)methyl]sulfinyl}benzimidazol-1-yl)sulfonyl]phenoxy}acetamide [Example 53]",% inhibition of gastric acid secretion,[1]; [5],65.2 ± 11.3%
Cc1c(OCC(F)(F)F)ccnc1C[S+]([O-])c1nc2ccccc2n1S(=O)(=O)c1ccc(OCC(N)=O)cc1 (stereo not shown) [Example 54],% inhibition of gastric acid secretion,[1]; [22],46.9%
same,% inhibition of gastric acid secretion,"[1]; between 4-7 hr after oral administration, listed as 2-(4-{[2-({[3-Methyl-4-(2,2,2-trifluoroethoxy)-2-pyridyl]methyl}sulfinyl) benzim)",46.9%
"COCCCOc1ccnc(C[S+]([O-])c2nc3ccccc3n2S(=O)(=O)c2ccc(OCC(N)=O)c(OCC(N)=O)c2)c1C (stereo not shown) [Example 77, 2-(2-carbamoylmethoxy-4-{2-[4-(3-methoxypropoxy)-3-methylpyridin-2-ylmethylsulfinyl]benzimidazole-1-sulfonyl}phenoxy)acetamide]",inhibition of gastric acid secretion,[1],56%
same,% inhibition of gastric acid secretion,[1]; [22],56%
same,half-life of hydrolysis,"[4]; 2 mg/mL, pH 7.4",3.73 h
same,half-life,"[4]; bovine, pH 7.4, half-life of hydrolysis",~22.2 h
same,half-life of hydrolysis,"[4]; buffer, pH 2",1.8 h
same,half-life,"[4]; buffer, pH 2, half-life of hydrolysis",~1.8 h
same,half-life of hydrolysis,"[4]; buffer, pH 8",10.7 h
same,half-life,"[4]; buffer, pH 8, half-life of hydrolysis",~10.7 h
same,half-life at 2 mg/mL,"[4]; pH 7.4, half-life of hydrolysis",~3.7 h
"Cc1c(OCC(F)(F)F)ccnc1C[S+]([O-])c1nc2ccccc2n1S(=O)(=O)c1ccc(OCC(N)=O)c(OCC(N)=O)c1 (stereo not shown) [Example 79, 2-(2-Carbamoylmethoxy-4-{2-[3-methyl-4-(2,2,2-trifluoro-ethoxy)-pyridin-2-ylmethanesulfinyl]-benzimidazole-1-sulfonyl}-phenoxy)-acetamide]",% inhibition of gastric acid secretion,[1]; [22],36.8%
"Cc1c(OCC(F)(F)F)ccnc1C[S+]([O-])c1nc2ccccc2[nH]1 (stereo not shown) [LANSOPRAZOLE, reference compound]",% inhibition of gastric acid secretion,[1]; [22],29%
same,% inhibition of gastric acid secretion,"[1]; between 4-7 hr after oral administration, listed as LANOPRAZOLE",29%
"COCCCOc1ccnc(C[S+]([O-])c2nc3ccccc3[nH]2)c1C (stereo not shown) [RABEPRAZOLE, reference compound]",inhibition of gastric acid secretion,[1],32%
same,% inhibition of gastric acid secretion,[1]; [22],32%
"N-(2-{4-[5-methoxy-2-(4-methoxy-3,5-dimethyl pyridin-2-yl methylsulfinyl)benzimidazole-1-sulfonyl]-phenoxy}ethyl)-N,N,N-trimethyl ammonium trifluoromethanesulfonate and N-(2-{4-[6-methoxy-2-(4-methoxy-3,5-dimethyl pyridin-2-yl methylsulfinyl)benzimidazole-1-sulfonyl]-phenoxy}ethyl)-N,N,N-trimethyl ammonium trifluoromethanesulfonate [Example 73]",% inhibition of gastric acid secretion,[1]; [5],21.8 ± 11.7%
"N-(carbamoylmethyl)-2-{4-[(5-methoxy-2-{[(3,5-dimethyl-4-methoxy-2-pyridyl)methyl]sulfinyl}benzimidazol-1-yl)sulfonyl]phenoxy}acetamide and N-(carbamoylmethyl)-2-{4-[(6-methoxy-2-{[(3.5-dimethyl-4-methoxy-2-pyridyl)methyl]sulfinyl}benzimidazol-1-yl)sulfonyl]phenoxy}acetamide [Example 62]",% inhibition of gastric acid secretion,[1]; [21],14.1 ± 7.5%
"N-[4-[[5-methoxy-2-[[(3,5-dimethyl-4-methoxy-2-pyridyl)methyl]sulfinyl]benzimidazol-1-yl]sulfonyl]phenyl]urea and N-[4-[[6-methoxy-2-[[(3,5-dimethyl-4-methoxy-2-pyridyl)methyl]sulfinyl]benzimidazol-1-yl]sulfonyl]phenyl]urea [Example 29]",Relative concentration of OMEPRAZOLE released in the plasma,[2]; [6],4.5 arbitrary unit
same,Relative concentration of OMEPRAZOLE released in the plasma,[2]; [7],14 arbitrary unit
same,Relative concentration of OMEPRAZOLE released in the plasma,[2]; [8],8.5 arbitrary unit
same,Relative concentration of OMEPRAZOLE released in the plasma,[2]; [9],3.5 arbitrary unit
same,Relative concentration of OMEPRAZOLE released in the plasma,[2]; [10],2.5 arbitrary unit
same,Relative concentration of OMEPRAZOLE released in the plasma,[2]; [11],1.875 arbitrary unit
same,Relative concentration of OMEPRAZOLE released in the plasma,[2]; [12],0.625 arbitrary unit
same,Relative concentration of OMEPRAZOLE released in the plasma,[2]; [13],0.6 arbitrary unit
same,Relative concentration of OMEPRAZOLE released in the plasma,[2]; [14],0.6 arbitrary unit
same,Relative concentration of OMEPRAZOLE released in the plasma,[2]; [15],1.5 arbitrary unit
same,Relative concentration of OMEPRAZOLE released in the plasma,[2]; [16],0.5 arbitrary unit
same,Relative concentration of OMEPRAZOLE released in the plasma,[2]; [17],0.5 arbitrary unit
same,Relative concentration of OMEPRAZOLE released in the plasma,[2]; [18],0.2 arbitrary unit
same,Relative concentration of OMEPRAZOLE released in the plasma,[2]; [19],0.1 arbitrary unit
same,Relative concentration of OMEPRAZOLE released in the plasma,[2]; [20],0.05 arbitrary unit
